System: hepatic mRNA expression in STAM™ mice
Assay: Murine STAM model of NASH-HCC: hepatic gene expression by quantitative RT-PCR
Type: in vivo, mouse
Protocol: A study was performed to evaluate the efficacy of gemcabene calcium salt hydrate Crystal Form 1 having a PSD90 of 52 μm as measured by laser light diffraction, in treating non-alcoholic steatosis hepatitis (NASH) in the murine STAM™ model of NASH-HCC.
Briefly, two-day old neonatal C57BL/6 male mice were administered low-dose streptozotocin (STZ), and were subsequently fed a HFC diet from 4 weeks of age. In this model, the mice typically develop liver steatosis and diabetes, reaching steatohepatitis within 3 weeks, followed by cirrhosis within 8 weeks, and carcinoma within 16 weeks. In the current study, mice were administered daily oral gemcabene calcium salt hydrate Crystal Form 1 starting at week 6 of age and were sacrificed at week 9. […] These STAM™ groups were orally administered from week 6 one of the following: water-vehicle, gemcabene calcium salt hydrate Crystal Form 1 at 30, 100 and 300 mg/kg daily, or telmisartan ([…]®) 10 mg/kg daily. […] All groups were sacrificed at week 9. Vehicle, gemcabene calcium salt hydrate Crystal Form 1, or telmisartan were administered by oral gavage once daily.
Various gene expression markers of liver metabolism were evaluated by Real-Time PCR (RT-PCR) in all mouse groups. Total RNA was extracted from liver samples using RNAiso (Takara Bio, Japan) according to the manufacturer's instructions. […] of RNA was reverse-transcribed using a reaction mixture containing 4.4 mM MgCl2 (F. Hoffmann-La Roche, Switzerland), 40 U RNase inhibitor (Toyobo, Japan), 0.5 mM dNTP (Promega, USA), 6.28 μM random hexamer (Promega), 5×first strand buffer (Promega), 10 mM dithiothreitol (Invitrogen, USA) and 200 U MMLV-RT (Invitrogen) in a final volume of 20 μL. The reaction was carried out for 1 hour at 37° C., followed by 5 minutes at 99° C. Real-time PCR was performed using real-time PCR DICE and SYBR premix Taq (Takara Bio). To calculate the relative mRNA expression level, the expression of each gene was normalized to that of reference gene 36B4 (gene symbol: RplpO). Information of PCR-primer sets is described in Tables 37A-37C. Statistical analyses were performed using the Bonferroni Multiple Comparison Test on GraphPad Prism 6 (GraphPad Software Inc., USA). P values <0.05 were considered statistically significant. Results are expressed as mean±SD.
In order to calculate the relative mRNA expression level, the expression of each gene was normalized to that of the reference gene 36B4 (gene symbol: RplpO). The gene expression levels were measured by quantitative RT-PCR. Results were normalized with values for the vehicle-treated normal group. […] Gemcabene calcium salt hydrate Crystal Form 1 (PSD90=52 μm) modulated the mRNA expression of many hepatic genes that play a significant role in the liver homeostasis and injury.

[1] = 10 mg/kg, n = 7, STAM mice, normalized to non-treated group
[2] = gemcabene Form 1 100 mg/kg, telmisartan 10 mg/kg
[3] = vs Vehicle in NASH group, gemcabene Form 1 100 and 300 mg/kg, telmisartan 10 mg/kg

## CCCc1nc2c(C)cc(-c3nc4ccccc4n3C)cc2n1Cc1ccc(-c2ccccc2C(=O)O)cc1 [telmisartan, reference compound]
[1]
  ACC1 gene expression (mean ± SD): 0.7 ± 0.1
  ACC2 gene expression (mean ± SD): 0.3 ± 0.1
  ADH-4 gene expression (mean ± SD): 0.6 ± 0.2
  ANGPTL3 gene expression (mean ± SD): 0.7 ± 0.2
  ANGPTL4 gene expression (mean ± SD): 2.1 ± 0.3
  ANGPTL8 gene expression (mean ± SD): 0.3 ± 0.1
  ApoC-III gene expression (mean ± SD): 0.8 ± 0.2
  CCR2 gene expression (mean ± SD): 2.4 ± 0.8
  CCR5 gene expression (mean ± SD): 1.5 ± 0.3
  CRP gene expression (mean ± SD): 0.9 ± 0.1
  CXCL1/KC gene expression (mean ± SD): 0.6 ± 0.3
  Fetuin-A gene expression (mean ± SD): 1.0 ± 0.1
  IL-1β gene expression (mean ± SD): 0.7 ± 0.2
  IL-6 gene expression (mean ± SD): 0.8 ± 0.4
  LDL receptor gene expression (mean ± SD): 0.7 ± 0.3
  LPL gene expression (mean ± SD): 2.4 ± 0.5
  MCP-1 gene expression (mean ± SD): 2.1 ± 1.0
  MIP-1β gene expression (mean ± SD): 3.9 ± 1.5
  MMP-2 gene expression (mean ± SD): 1.4 ± 0.7
  NF-κB gene expression (mean ± SD): 1.1 ± 0.1
  PNPLA3 gene expression (mean ± SD): 0.1 ± 0.0
  SCD1 gene expression (mean ± SD): 0.1 ± 0.0
  SREBP-1 gene expression (mean ± SD): 0.7 ± 0.2
  Sulf-2 gene expression (mean ± SD): 3.9 ± 0.9
  TIMP-1 gene expression (mean ± SD): 8.6 ± 5.1
  TNF-α gene expression (mean ± SD): 3.0 ± 1.2
  α-SMA gene expression (mean ± SD): 2.3 ± 0.7
STAM mice
  LDL receptor gene expression: no effect
[2]
  ACC-1 mRNA expression (relative, mean±SD): 0.7±0.1
  ADH-4 mRNA expression (relative, mean±SD): 0.6±0.2
  CCR2 mRNA expression (relative, mean±SD): 2.4±0.8
  CCR5 mRNA expression (relative, mean±SD): 1.5±0.3
  CRP mRNA levels (relative, mean±SD): No significant differences
  MCP-1 mRNA expression (relative, mean±SD): 2.1±1.0
  MIP-1β mRNA levels (relative, mean±SD): 3.9±1.5
Vs Vehicle in NASH group, gemcabene Form 1 30, 100 and 300 mg/kg, telmisartan 10 mg/kg
  hepatic LPL mRNA expression levels: no significant difference
[3]
  ANGPTL4 mRNA expression levels: significant down-regulations
  IL-6 mRNA expression level: significant down-regulations

Reference: US20200253877A1, “GEMCABENE, PHARMACEUTICALLY ACCEPTABLE SALTS THEREOF, COMPOSITIONS THEREOF AND METHODS OF USE THEREFOR” (NEUROBO PHARMACEUTICALS, INC., priority 2018, published 2020)
